Reference: patent US20110165565A1, “COMPOSITIONS AND METHODS FOR POLYNUCLEOTIDE EXTRACTION AND METHYLATION DETECTION” (THE JOHNS HOPKINS UNIVERSITY, priority 2008, published 2011)

Tested on: p16 promoter methylation in colorectal cancer cell line RKO
Experiment: MS-qFRET quantification of p16 methylation reversal in RKO cells treated with DAC
Format: cell-based
Source text: The quantitative ability of MS-qFRET was further tested in cell lines and in patient samples as a function of response to a DNA demethylating agent. Reversal of methylation in the colorectal cancer cell line, RKO, was quantified at specific time points after treatment with 5-aza-2′-deoxycytidine (DAC). […] Since DNA replication is necessary for incorporation of DAC into DNA, reversal of methylation may be best observed only after inhibition of DNA methyltransferases due to cell cycling. The low amount of methylation reversal in the initial 24 to 36 hours could be attributed to the 22 hour doubling time for RKO cells.
(ID and IA corresponding to donor and acceptor intensity).

Nc1ncn([C@H]2C[C@H](O)[C@@H](CO)O2)c(=O)n1 [5-aza-2′-deoxycytidine (DAC), 5-aza-2′-deoxycytidine]
q-score, level of p16 methylation post-treatment (DNA from RKO cells treated with DAC for different time points (FIG. 3C)): drop in the level of methylation
time of maximal reversal of methylation at p16 (RKO cells, 1 μM DAC, post-treatment): 60 h
